Results reported in patent US20260191874A1, “FUSED AMINO PYRIMIDINE COMPOUNDS FOR TREATMENT OF AUTISM SPECTRUM DISORDER, OBSESSIVE COMPULSIVE DISORDER AND TICS” (Ovid Therapeutics Inc., priority 2024, published 2026).

What was measured:
KCC3 = target: T1, KCC3 (Homo sapiens, UniProt Q9UHW9); assay: Tl+ flux assay in HEK-293 cells expressing KCC3; format: cell-based; conditions: read-out: concentration at which effects on KCC3 were seen (EC50 chart, FIG. 1G)
T1 construct: expressed in transfected cells; host or cells: HEK-293
T1 sequence (Q9UHW9 1-1150): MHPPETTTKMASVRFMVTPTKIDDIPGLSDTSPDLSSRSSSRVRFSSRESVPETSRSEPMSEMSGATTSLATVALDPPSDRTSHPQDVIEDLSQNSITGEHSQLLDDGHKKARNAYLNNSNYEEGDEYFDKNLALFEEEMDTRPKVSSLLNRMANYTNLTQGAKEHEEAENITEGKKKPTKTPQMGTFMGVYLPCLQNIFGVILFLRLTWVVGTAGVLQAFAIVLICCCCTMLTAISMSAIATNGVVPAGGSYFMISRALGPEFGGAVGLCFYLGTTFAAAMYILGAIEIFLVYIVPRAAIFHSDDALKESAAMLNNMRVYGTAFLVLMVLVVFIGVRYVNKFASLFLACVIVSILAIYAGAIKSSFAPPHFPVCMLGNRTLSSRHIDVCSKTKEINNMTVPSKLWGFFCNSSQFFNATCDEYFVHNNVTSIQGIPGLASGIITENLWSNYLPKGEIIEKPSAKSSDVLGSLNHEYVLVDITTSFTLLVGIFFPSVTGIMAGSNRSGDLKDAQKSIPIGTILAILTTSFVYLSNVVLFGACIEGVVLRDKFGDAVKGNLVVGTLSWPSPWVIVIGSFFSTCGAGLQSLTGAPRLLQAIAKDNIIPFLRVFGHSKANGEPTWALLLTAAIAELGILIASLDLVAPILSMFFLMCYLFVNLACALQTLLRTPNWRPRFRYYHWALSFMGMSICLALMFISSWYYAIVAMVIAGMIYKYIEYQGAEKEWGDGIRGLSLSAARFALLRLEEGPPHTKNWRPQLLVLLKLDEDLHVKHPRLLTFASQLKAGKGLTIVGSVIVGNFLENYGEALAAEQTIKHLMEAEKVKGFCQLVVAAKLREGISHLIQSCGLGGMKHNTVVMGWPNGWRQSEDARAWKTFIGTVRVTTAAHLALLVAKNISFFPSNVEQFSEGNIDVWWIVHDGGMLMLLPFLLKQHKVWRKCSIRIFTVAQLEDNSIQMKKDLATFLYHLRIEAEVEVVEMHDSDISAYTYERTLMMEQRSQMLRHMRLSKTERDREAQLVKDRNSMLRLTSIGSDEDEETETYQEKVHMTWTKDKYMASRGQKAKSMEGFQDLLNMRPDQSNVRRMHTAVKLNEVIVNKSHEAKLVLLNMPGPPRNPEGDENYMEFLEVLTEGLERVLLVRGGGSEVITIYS
Procedure: FLIPR TI Flux assay. HEK-293 cells were washed with HBSS, and then incubated with loading buffer containing TI sensitive fluorescent dye (https://www.moleculardevices.com), 20 μM bumetanide 20 μM ouabain and 2.5 mM probenecid for 1 h at room temperature (RT) under control conditions or with drugs in the dark using a FlexStation 3 microplate reader (Molecular Devices) and imaged […] for 30 min. Stimulus buffer was added containing 5 mM K^+/0.5 mM Tl^+ and cells were imaged every 1.5 over a 190 second time course The initial rate Tl^+ uptake (Relative Fluorescence Units (RFU) per second) was determined following addition of the stimulus buffer as outlined previously (Conway et al., 2017, supra) (Lee et al., 2022, supra).
Several studies have shown that the activity and plasma membrane accumulation of KCC2 is potentiated via phosphorylation of S940, a process mediated by the activity of protein kinase C and protein phosphatase 1 (Lee et al., 2011, supra; Lee et al., J Biol Chem 282, 29777-29784 (2007); Moore et al., Proc. Natl. Acad. Sci. U.S.A 115, 10166-10171 (2018); Moore et al., Trends Neurosci. 40, 555-571 (2017); Silayeva et al., Proc. Natl. Acad. Sci. U.S.A 112, 3523-3528 (2015)). […] Compared to KCC2, effects on KCC3, KCC4, and NKCC1 were only seen at concentrations more than 35-fold that of KCC2 (≥100 μM) (FIG. 1G).

[1] = system: panel of 144 protein kinases; assay: SelectScreen protein kinase panel; format: biochemical; conditions: 144 protein kinases incl. PKC isoforms, OSR1, SPAK, WNK
Procedure: Aliquots of HEK-293 cells expressing KCC2 were exposed to 30 μM SSA, heated from 37-55° C. The remaining level of soluble native KCC2 at each temperature was measured by immunoblotting and normalized to the level seen at 37° C. which was given a value of 1. […] This panel included protein kinase C isoforms, OSR1, SPAK (STK39) and with-no-lysine kinases (WNK), all of which phosphorylate KCC2 on multiple residues to indirectly modify its activity (Kahle et al., 2013, supra; Smalley et al., 2020, supra).

hippocampus = assay: Neuronal cell death in the hippocampus of mice treated with diazepam; format: in vivo; conditions: Compound A and diazepam, compared to diazepam alone

For C[C@@H]1CN(c2nc3c(c(Nc4ccc(C5CCCCC5)cc4)n2)COC3)CCO1 [Compound A, (R)—N-(4-cyclohexylphenyl)-2-(2-methylmorpholino)-5,7-dihydrofuro[3,4-d]pyrimidin-4-amine], the EC50 (KCC3) was no less than 100 µM, the “effect on activity of kinase panel” value [1] was “did not modify the activity” and the “neuronal cell death in the hippocampus” value (hippocampus) was “significantly reduced”.
